Assays:
[1] = molecular target: Tyrosine-protein kinase JAK1 (Homo sapiens, UniProt P23458); experiment: Inhibition of N-terminal GST-tagged human recombinant JAK1 (866 to 1154 residues) expressed in insect cells using FITC-C6-KKHTDDGYMPMSPGVA-NH peptide as substrate incubated for 10 mins measured after 90 mins in presence of ATP by caliper mobility shift assay
[2] = molecular target: T1, Tyrosine-protein kinase JAK3 (Homo sapiens, UniProt P52333); experiment: Inhibition of N-terminal GST-tagged human recombinant JAK3 (781 to 1124 residues) expressed in insect cells using 5FAM-GEEPLYWSFPAKKK-NH2 peptide as substrate incubated for 10 mins measured after 90 mins in presence of ATP by caliper mobility shift assay
T1 sequence (P52333 whole entry): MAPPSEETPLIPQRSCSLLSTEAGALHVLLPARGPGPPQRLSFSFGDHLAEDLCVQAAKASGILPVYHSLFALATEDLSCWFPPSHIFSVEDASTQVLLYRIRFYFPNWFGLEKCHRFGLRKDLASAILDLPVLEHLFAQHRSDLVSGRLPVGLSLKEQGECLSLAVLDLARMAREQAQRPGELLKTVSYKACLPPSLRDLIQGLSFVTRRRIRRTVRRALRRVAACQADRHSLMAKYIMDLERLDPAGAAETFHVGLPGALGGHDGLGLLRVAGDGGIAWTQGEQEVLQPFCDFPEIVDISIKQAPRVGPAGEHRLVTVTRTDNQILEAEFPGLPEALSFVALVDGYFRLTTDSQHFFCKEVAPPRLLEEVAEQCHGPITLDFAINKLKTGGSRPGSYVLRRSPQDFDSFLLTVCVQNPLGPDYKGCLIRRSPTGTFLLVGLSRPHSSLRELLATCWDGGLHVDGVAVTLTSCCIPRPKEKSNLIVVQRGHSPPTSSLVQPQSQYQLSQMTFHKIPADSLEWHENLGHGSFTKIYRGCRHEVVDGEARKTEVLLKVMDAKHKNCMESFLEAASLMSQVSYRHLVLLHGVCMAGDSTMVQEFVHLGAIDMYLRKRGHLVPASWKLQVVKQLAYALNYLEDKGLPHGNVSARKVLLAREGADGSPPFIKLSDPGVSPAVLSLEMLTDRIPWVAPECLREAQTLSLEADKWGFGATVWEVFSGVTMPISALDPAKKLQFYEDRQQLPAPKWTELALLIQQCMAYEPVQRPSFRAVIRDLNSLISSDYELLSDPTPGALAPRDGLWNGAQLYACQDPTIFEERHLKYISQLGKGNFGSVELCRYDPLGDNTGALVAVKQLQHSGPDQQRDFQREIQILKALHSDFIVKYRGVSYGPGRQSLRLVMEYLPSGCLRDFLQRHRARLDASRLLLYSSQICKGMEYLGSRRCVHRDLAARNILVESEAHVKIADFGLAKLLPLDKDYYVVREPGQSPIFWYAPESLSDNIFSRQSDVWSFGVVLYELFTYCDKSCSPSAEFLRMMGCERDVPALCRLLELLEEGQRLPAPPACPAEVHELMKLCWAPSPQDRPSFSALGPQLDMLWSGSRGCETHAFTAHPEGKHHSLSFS

Tyrosine-protein kinase JAK1, sequence (P23458 whole entry, the tested form may be a part): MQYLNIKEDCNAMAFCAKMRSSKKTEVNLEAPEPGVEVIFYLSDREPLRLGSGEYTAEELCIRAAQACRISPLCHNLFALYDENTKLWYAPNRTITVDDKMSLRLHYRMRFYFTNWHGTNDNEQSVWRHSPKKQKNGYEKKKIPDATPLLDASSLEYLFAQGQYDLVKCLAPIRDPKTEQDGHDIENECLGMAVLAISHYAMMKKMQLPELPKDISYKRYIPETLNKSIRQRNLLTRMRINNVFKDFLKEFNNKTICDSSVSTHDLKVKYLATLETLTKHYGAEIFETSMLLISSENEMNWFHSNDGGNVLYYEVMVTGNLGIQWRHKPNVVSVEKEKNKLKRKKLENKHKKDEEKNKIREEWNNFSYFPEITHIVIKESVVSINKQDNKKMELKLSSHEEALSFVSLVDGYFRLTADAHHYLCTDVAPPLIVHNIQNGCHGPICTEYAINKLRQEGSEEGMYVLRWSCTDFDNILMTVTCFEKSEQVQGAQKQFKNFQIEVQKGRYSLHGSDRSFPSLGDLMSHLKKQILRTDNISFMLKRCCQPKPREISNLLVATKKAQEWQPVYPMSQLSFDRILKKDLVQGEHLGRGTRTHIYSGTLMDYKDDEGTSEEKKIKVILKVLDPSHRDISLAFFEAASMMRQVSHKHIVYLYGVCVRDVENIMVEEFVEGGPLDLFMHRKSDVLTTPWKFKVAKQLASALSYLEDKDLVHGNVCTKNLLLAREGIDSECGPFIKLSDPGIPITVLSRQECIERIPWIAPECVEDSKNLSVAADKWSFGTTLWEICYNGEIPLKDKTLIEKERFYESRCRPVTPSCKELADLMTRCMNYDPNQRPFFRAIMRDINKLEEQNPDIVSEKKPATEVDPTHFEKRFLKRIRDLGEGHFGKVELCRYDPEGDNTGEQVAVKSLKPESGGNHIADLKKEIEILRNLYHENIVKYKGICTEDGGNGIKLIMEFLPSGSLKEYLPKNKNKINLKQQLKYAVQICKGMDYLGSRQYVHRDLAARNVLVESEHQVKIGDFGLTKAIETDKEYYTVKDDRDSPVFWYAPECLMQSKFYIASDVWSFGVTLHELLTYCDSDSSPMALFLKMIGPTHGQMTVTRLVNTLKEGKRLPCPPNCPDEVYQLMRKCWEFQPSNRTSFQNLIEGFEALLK

| Structure (SMILES) | IC50 [1] [µM] | IC50 [2] [µM] |
| --- | --- | --- |
| COC[C@H](C(=O)Nc1cccc2c(-c3nc(Nc4cccc(S(C)(=O)=O)c4F)ncc3C)c[nH]c12)N1CCN(C)CC1 [US10961228, Example 16] | < 0.003 | > 30 |
| CC[C@H](C(=O)Nc1cccc2c(-c3nc(Nc4cccc(S(C)(=O)=O)c4F)ncc3C)c[nH]c12)N1CCN(C)CC1 [US10961228, Example 14] | < 0.003 | > 30 |
| CC[C@H](C(=O)Nc1cccc2c(-c3nc(Nc4cccc(S(C)(=O)=O)c4F)ncc3F)c[nH]c12)N1CCN(C)CC1 [US10961228, Example 38] |  | > 30 |
| COC[C@H](C(=O)Nc1cccc2c(-c3nc(Nc4cccc(S(C)(=O)=O)c4F)ncc3F)c[nH]c12)N1CCN(C)CC1 [US10961228, Example 35] | < 0.003 | > 30 |
| Cc1cnc(Nc2cccc(S(C)(=O)=O)c2F)nc1-c1c[nH]c2c(NC(=O)[C@@H](C)N3CCN(C)CC3)cccc12 [US10961228, Example 2] |  | > 30 |
